Several values for one entry are separate records, joined by “and”; a condition that tells them apart may be missing. Equal values may be shown once. Records with an inconclusive call do not appear.
System: Nude mice, LX-1 lung xenograft intrarenal, tumor weight T/C
Assay: NCI In Vivo Anticancer Drug Screen. Data for tumor model Human Lung LX-1 Xenograft (intrarenal inoculation) in NU/NU BALB/C (nude) mice
Conditions: endpoint: mean tumor weight change, higher = larger tumour
Method: The antitumor activity of compounds was measured in mice bearing transplantable tumors. Survival or tumor size were measured and the results are expressed as the measurement made in the treated group (T) divided by the measurement made in the vehicle treated control group (C). The tumor model used in this assay is Human Lung LX-1 Xenograft (intrarenal inoculation) in NU/NU BALB/C (nude) mice

[1] = dose: 2.0 mg/kg/injection, schedule: Q01DX010 (sc), vehicle: saline
[2] = dose: 8.0 mg/kg/injection, schedule: Q01DX010 (sc), vehicle: saline
[3] = dose: 300.0 mg/kg/injection, schedule: Q04DX003 (sc), vehicle: saline with Tween-80
[4] = dose: 600.0 mg/kg/injection, schedule: Q04DX003 (sc), vehicle: saline with Tween-80
[5] = dose: 1200.0 mg/kg/injection, schedule: Q04DX003 (sc), vehicle: saline with Tween-80
[6] = dose: 2400.0 mg/kg/injection, schedule: Q04DX003 (sc), vehicle: saline with Tween-80
[7] = dose: 200.0 mg/kg/injection, schedule: Q04DX003 (sc), vehicle: Klucel (hydroxypropylcellulose) (HPC)
[8] = dose: 400.0 mg/kg/injection, schedule: Q04DX003 (sc), vehicle: Klucel (hydroxypropylcellulose) (HPC)
[9] = dose: 800.0 mg/kg/injection, schedule: Q04DX003 (sc), vehicle: Klucel (hydroxypropylcellulose) (HPC)
[10] = dose: 4.0 mg/kg/injection, schedule: Q01DX010 (sc), vehicle: saline
[11] = dose: 37.5 mg/kg/injection, schedule: Q04DX003 (sc), vehicle: saline
[12] = dose: 100.0 mg/kg/injection, schedule: Q01DX010 (sc), vehicle: saline with Tween-80
[13] = dose: 200.0 mg/kg/injection, schedule: Q01DX010 (sc), vehicle: saline with Tween-80
[14] = dose: 400.0 mg/kg/injection, schedule: Q01DX010 (sc), vehicle: saline with Tween-80

In the case of N[C@H](C(=O)O)[C@@H]1CC(Cl)=NO1, the T/C (dose: 0.5 mg/kg/injection, schedule: Q01DX010 (sc), vehicle: saline) is reported as 44 % of control, the T/C [1] is reported as 223 % of control and 82 % of control and the T/C (dose: 2.0 mg/kg/injection, schedule: Q02DX005 (sc), vehicle: saline) is reported as 150 % of control. The T/C (dose: 4.0 mg/kg/injection, schedule: Q02DX005 (sc), vehicle: saline) was 227 % of control, the T/C [2] was 361 % of control and the T/C (dose: 8.0 mg/kg/injection, schedule: Q02DX005 (sc), vehicle: saline) was 159 % of control. For the same compound, the T/C (dose: 16.0 mg/kg/injection, schedule: Q01DX010 (sc), vehicle: saline) was 63 % of control, the T/C (dose: 16.0 mg/kg/injection, schedule: Q02DX005 (sc), vehicle: saline) was 253 % of control and the T/C (dose: 32.0 mg/kg/injection, schedule: Q01DX010 (sc), vehicle: saline) was 35 % of control. The T/C (dose: 32.0 mg/kg/injection, schedule: Q02DX005 (sc), vehicle: saline) was 68 % of control.
For CC(=O)N(C)O, the T/C (dose: 150.0 mg/kg/injection, schedule: Q04DX003 (sc), vehicle: saline with Tween-80) was 92 % of control.
With COC1N(C2CC(O)C(CO)O2)C(=O)NC(=O)C1(F)Br (configuration not stated) the T/C (dose: 12.5 mg/kg/injection, schedule: Q01DX010 (sc), vehicle: saline) was 54 % of control, the T/C (dose: 50.0 mg/kg/injection, schedule: Q01DX010 (sc), vehicle: saline) was 12 % of control and 24 % of control and the T/C (dose: 100.0 mg/kg/injection, schedule: Q01DX010 (sc), vehicle: saline) was 12 % of control and 13 % of control.
In the case of O=C(CCCCCCC(=O)ON1C(=O)CCC1=O)ON1C(=O)CCC1=O, the T/C [3] is reported as 104 % of control, the T/C [4] is reported as 95 % of control and the T/C [5] is reported as 89 % of control. The T/C [6] was 72 % of control.
With Nc1ncn(C2CC(O)C(CO)O2)c(=O)n1 (configuration not stated) the T/C (dose: 0.75 mg/kg/injection, schedule: Q01DX010 (sc), vehicle: saline) was 85 % of control.
CN1CCc2c(c3ccccc3c3ccccc23)C1 was tested, and the T/C (dose: 150.0 mg/kg/injection, schedule: Q04DX003 (sc), vehicle: Klucel (hydroxypropylcellulose) (HPC)) was 58 % of control, the T/C (dose: 300.0 mg/kg/injection, schedule: Q04DX003 (sc), vehicle: Klucel (hydroxypropylcellulose) (HPC)) was 55 % of control and the T/C (dose: 600.0 mg/kg/injection, schedule: Q04DX003 (sc), vehicle: Klucel (hydroxypropylcellulose) (HPC)) was 48 % of control.
CC(=Nc1ccccc1)C1=C(O)C(Cc2ccccc2)NC1=O (configuration not stated) was tested, and the T/C [3] was 52 % of control, the T/C [4] was 32 % of control and the T/C [5] was 40 % of control. The T/C [6] was 30 % of control.
For Cc1ccoc1, the T/C (dose: 50.0 mg/kg/injection, schedule: Q01DX010 (ip), vehicle: saline with Tween-80) was 109 % of control, the T/C (dose: 100.0 mg/kg/injection, schedule: Q01DX010 (ip), vehicle: saline with Tween-80) was 93 % of control and the T/C (dose: 200.0 mg/kg/injection, schedule: Q01DX010 (ip), vehicle: saline with Tween-80) was 163 % of control. The T/C (dose: 400.0 mg/kg/injection, schedule: Q01DX010 (ip), vehicle: saline with Tween-80) was 80 % of control.
For CN(C)/N=N/c1nc[nH]c1C(N)=O, the T/C (dose: 100.0 mg/kg/injection, schedule: Q04DX003 (sc), vehicle: Klucel (hydroxypropylcellulose) (HPC)) was -25 % of control, the T/C (dose: 200.0 mg/kg/injection, schedule: Q01DX010 (sc), vehicle: Klucel (hydroxypropylcellulose) (HPC)) was 2 % of control and the T/C [7] was -43 % of control. The T/C [8] was -91 % of control and the T/C [9] was -100 % of control.
In the case of O=C(O)C1(NO)CCCCC1, the T/C [7] is reported as 81 % of control, the T/C [8] is reported as 85 % of control and the T/C [9] is reported as 81 % of control. For the same compound, the T/C (dose: 1600.0 mg/kg/injection, schedule: Q04DX003 (sc), vehicle: Klucel (hydroxypropylcellulose) (HPC)) was 77 % of control.
With CC[C@H]1CN2CCc3cc(OC)c(OC)cc3[C@@H]2C[C@@H]1C[C@H]1NCCc2cc(OC)c(OC)cc21 the T/C [10] was 81 % of control.
For COc1cccc2c1C(=O)c1c(O)c3c(c(O)c1C2=O)C[C@@](O)(C(C)=O)C[C@@H]3OC1CC(N)C(O)C(C)O1 (some centres not stated), the T/C [1] was 109 % of control, the T/C [10] was 153 % of control and the T/C [2] was 31 % of control.
For C[C@@H]1C[C@@H]([C@H](O)CC2CC(=O)NC(=O)C2)C(=O)[C@@H](C)C1, the T/C (dose: 18.75 mg/kg/injection, schedule: Q04DX003 (sc), vehicle: saline) was 94 % of control, the T/C [11] was 114 % of control and the T/C (dose: 75.0 mg/kg/injection, schedule: Q04DX003 (sc), vehicle: saline) was 118 % of control. The T/C (dose: 150.0 mg/kg/injection, schedule: Q04DX003 (sc), vehicle: saline) was 110 % of control.
For Cn1c(=O)[nH]c2nncnc2c1=O, the T/C (dose: 62.5 mg/kg/injection, schedule: Q04DX003 (sc), vehicle: water) was 110 % of control.
With COc1ccc(OC)c(/C=C/c2ccnc3ccccc23)c1 the T/C (dose: 50.0 mg/kg/injection, schedule: Q01DX010 (sc), vehicle: saline with Tween-80) was 65 % of control, the T/C [12] was 152 % of control and the T/C [13] was 251 % of control. The T/C [14] was 121 % of control.
With O=C(CN1CCOCC1)Nc1nc(-c2ccc(Cl)cc2)cs1 the T/C (dose: 100.0 mg/kg/injection, schedule: Q04DX003 (ip), vehicle: saline with Tween-80) was 118 % of control, the T/C (dose: 200.0 mg/kg/injection, schedule: Q04DX003 (ip), vehicle: saline with Tween-80) was 87 % of control and the T/C (dose: 400.0 mg/kg/injection, schedule: Q04DX003 (ip), vehicle: saline with Tween-80) was 106 % of control. For the same compound, the T/C (dose: 800.0 mg/kg/injection, schedule: Q04DX003 (ip), vehicle: saline with Tween-80) was 89 % of control.
For CCCCCc1cc(/C=C2/N=C(c3ccc[nH]3)C=C2OC)[nH]c1C, the T/C (dose: 8.0 mg/kg/injection, schedule: Q04DX003 (sc), vehicle: saline with Tween-80) was 73 % of control, the T/C (dose: 16.0 mg/kg/injection, schedule: Q04DX003 (sc), vehicle: saline with Tween-80) was 54 % of control and the T/C (dose: 32.0 mg/kg/injection, schedule: Q04DX003 (sc), vehicle: saline with Tween-80) was 59 % of control. For the same compound, the T/C (dose: 64.0 mg/kg/injection, schedule: Q04DX003 (sc), vehicle: saline with Tween-80) was 67 % of control.
In the case of CCCCCCCCCCCCCCCCCCOCC(COP(=O)([O-])OCC[N+](C)(C)C)OC (configuration not stated), the T/C [11] is reported as 68 % of control.
For N=c1c(C(=O)OCc2ccccc2)ncc(CCl)n1O, the T/C [3] was 87 % of control, the T/C [4] was 83 % of control and the T/C [5] was 91 % of control. The T/C [6] was 81 % of control.
CCCC(=O)Oc1ccc(/C=N/NC(N)=S)nc1 was tested, and the T/C [12] was 66 % of control, the T/C [13] was 42 % of control and the T/C [14] was 19 % of control.
For COC1=C(OC)C(=O)C(SC/C=C(\C)CCCC(C)CCCC(C)CCCC(C)C)=CC1=O (configuration not stated), the T/C (dose: 300.0 mg/kg/injection, schedule: Q04DX003 (ip), vehicle: saline with Tween-80) was 82 % of control, the T/C (dose: 600.0 mg/kg/injection, schedule: Q04DX003 (ip), vehicle: saline with Tween-80) was 110 % of control and the T/C (dose: 1200.0 mg/kg/injection, schedule: Q04DX003 (ip), vehicle: saline with Tween-80) was 72 % of control.
In the case of Cc1cc(=NO)cc(C)n1O, the T/C (dose: 300.0 mg/kg/injection, schedule: Q04DX003 (sc), vehicle: distilled water + alcohol) is reported as 102 % of control, the T/C (dose: 600.0 mg/kg/injection, schedule: Q04DX003 (sc), vehicle: distilled water + alcohol) is reported as 102 % of control and the T/C (dose: 1200.0 mg/kg/injection, schedule: Q04DX003 (sc), vehicle: distilled water + alcohol) is reported as 60 % of control.
N#Cc1cn(C2OC(CO)C(O)C2O)c2ncnc(N)c12 (configuration not stated) was tested, and the T/C (dose: 1.0 mg/kg/injection, schedule: Q01DX010 (sc), vehicle: saline) was 26 % of control and the T/C [1] was 77 % of control.
In the case of Cc1ccc(S(=O)(=O)N/N=C/C(Br)=C(/Br)C(=O)O)cc1, the T/C (dose: 1.25 mg/kg/injection, schedule: Q04DX003 (sc), vehicle: saline) is reported as 122 % of control, the T/C (dose: 5.0 mg/kg/injection, schedule: Q04DX003 (sc), vehicle: saline) is reported as 115 % of control and the T/C (dose: 10.0 mg/kg/injection, schedule: Q04DX003 (sc), vehicle: saline) is reported as 82 % of control.
For Nc1nc(=S)c2[nH]cnc2[nH]1, the T/C (dose: 0.4 mg/kg/injection, schedule: Q01DX010 (sc), vehicle: Klucel (hydroxypropylcellulose) (HPC)) was 105 % of control, the T/C (dose: 1.6 mg/kg/injection, schedule: Q01DX010 (sc), vehicle: Klucel (hydroxypropylcellulose) (HPC)) was 76 % of control and the T/C (dose: 3.2 mg/kg/injection, schedule: Q01DX010 (sc), vehicle: Klucel (hydroxypropylcellulose) (HPC)) was 58 % of control.

Reference: PubChem BioAssay AID266 (DTP/NCI, 2004)
